Measured values taken from US20250345426A1, “METHODS FOR MAKING AND USING THERAPEUTIC CELLS” (THE REGENTS OF THE UNIVERSITY OF CALIFORNIA, priority 2022, published 2025).

Assays:
[1] = tested on: Raji tumor xenografts; assay: Raji xenograft in NSG mice treated with inhibitor-preconditioned rituximab CAR-T cells; format: in vivo; details: for prolonged median survival compared to vehicle (DMSO)-treated rituximab CAR-T cells: two doses of preconditioned rituximab CAR-T cells
Description: FIG. 2A-C. […] (A) Tumor signal (in photons/sec/cm^2/sr) in individual animals as quantified by bioluminescence imaging. […] Statistical significance was determined by Mann-Whitney U test with Holm-Sidak correction for multiple comparisons. * p<0.05, n.s. not statistically significant. (B) Kaplan-Meier survival curve (top) and table of median survival period in days (bottom). (C) Frequency of human CD45+EGFRt+ cell in peripheral blood collected from mice on day 8 after first dose of T-cell infusion. Statistical significance was determined by two-tailed Student's t test with Sidak correction for multiple comparisons. * p<0.05, ** p<0.01.
In vivo studies. Six- to eight-week-old NOD/SCID/IL-2Rγ^null (NSG) mice were obtained from UCLA Department of Radiation and Oncology. The protocol was approved by UCLA Institutional Animal Care and Used Committee. […] Details of the dose and timing of tumor injection, T-cell injection, and tumor re-challenge are indicated in the text and figures. Tumor progression/regression was monitored with an IVIS Illumina III LT Imaging System (PerkinElmer). Blood samples were harvested via retro-orbital bleeding 3 days post T-cell injection and every 10-13 days thereafter. Mice were euthanized at the humane endpoint. Bone marrow, spleen and liver were collected after euthanasia. Tissues were ground and passed through a 100-μm filter followed by red-blood-cell lysis prior to flow-cytometry analysis.

[2] = tested on: rituximab CAR-T cells; assay: TNF-α production without antigen stimulation, intracellular flow cytometry, rituximab CAR-T cells; format: cell-based, human; details: vs vehicle (DMSO)
Text: (§1) FIG. 1A-G. Pharmacological inhibition of PI3K/AKT pathway modulates antigen-independent CAR-T cell activation. (A) Table of pharmacological inhibitors used during ex vivo expansion of rituximab CAR-T cells (left). Simplified schematic of the PI3K/AKT signaling axis where black arrows represent activation (right). (B) Activation marker expression by CAR^+ T cells in the absence of antigen stimulation after 5 days of pharmacological modulation. Data bars indicate the means of technical triplicates±1 S.D. The bars in FIG. 1B represent data from, untreated, vehicle, CAL-101, AZD5363, Rapamycin, MYCi975, and Betulin, respectively, from left to right. (C) TNF-α production CAR^+ T cells in the absence of antigen stimulation as quantified by intracellular flow cytometry. Data bars indicate the means of technical triplicates±1 S.D. The bars in FIG. 1B and FIG. 1C represent data from, untreated, vehicle, CAL-101, AZD5363, Rapamycin, MYCi975, and Betulin, respectively, from left to right. (D) Proliferation of CAR^+ T cells stained with CellTrace Violet (CTV) dye was assayed after a 4-day culture in the absence of target cells or exogenous cytokines. […] Statistical significance in panels B, C, and D was determined by two-tailed Student's t test with Sidak correction for multiple comparisons. * p<0.05, ** p<0.01, *** p<0.001, n.s. not statistically significant. […]

[3] = tested on: rituximab CAR-T cells; assay: CellTrace Violet proliferation assay without target cells or exogenous cytokines, rituximab CAR-T cells; format: cell-based, human; details: 4-day culture, CTV dye, vs vehicle (DMSO)
Description: (D) Proliferation of CAR^+ T cells stained with CellTrace Violet (CTV) dye was assayed after a 4-day culture in the absence of target cells or exogenous cytokines. Data shown in the histogram correspond to one of technical triplicates shown in the bar graph. The bars FIG. 1D represent data from, EGFRt, untreated, vehicle, CAL-101, AZD5363, Rapamycin, MYCi975, and Betulin, respectively, from left to right. […] In (B)-(F), results are representative two independent experiments using cells from of two heathy donors. Statistical significance in panels B, C, and D was determined by two-tailed Student's t test with Sidak correction for multiple comparisons. * p<0.05, ** p<0.01, *** p<0.001, n.s. not statistically significant.
For inhibitor analysis, starting on Day 8, T cells were cultured in T-cell media with cytokine support in the presence of 1 μM PI3K8 isoform inhibitor (CAL-101, Apex Biotechnology #A300520)), 1 μM AKT inhibitor (AZD5363, Selleckchem #S8019), 100 nM mTORC1 inhibitor (Rapamycin, LC Laboratories #R-5000), 2 μM c-Myc inhibitor (MYCi975, MedChemExpress #HY-129601), SREBP inhibitor (Betulin, MilliporeSigma #92648), or DMSO as a vehicle control. Each inhibitor molecule was solubilized in DMSO.
Proliferation assay. […] Cultures were passaged as needed, and CTV dilution was analyzed on a MACSQuant VYB flow cytometer after a 4-day co-incubation.

[4] = tested on: rituximab CAR-T cells; assay: Antigen-independent activation and exhaustion marker expression by flow cytometry, rituximab CAR-T cells; format: cell-based, human; details: 5 days inhibitor culture, no antigen, vs vehicle (DMSO), CAL-101 1 μM, AZD5363 1 μM
Text: FIG. 1A-G. Pharmacological inhibition of PI3K/AKT pathway modulates antigen-independent CAR-T cell activation. (A) Table of pharmacological inhibitors used during ex vivo expansion of rituximab CAR-T cells (left). Simplified schematic of the PI3K/AKT signaling axis where black arrows represent activation (right). (B) Activation marker expression by CAR^+ T cells in the absence of antigen stimulation after 5 days of pharmacological modulation. Data bars indicate the means of technical triplicates±1 S.D. The bars in FIG. 1B represent data from, untreated, vehicle, CAL-101, AZD5363, Rapamycin, MYCi975, and Betulin, respectively, from left to right. (C) TNF-α production CAR^+ T cells in the absence of antigen stimulation as quantified by intracellular flow cytometry. Data bars indicate the means of technical triplicates±1 S.D. The bars in FIG. 1B and FIG. 1C represent data from, untreated, vehicle, CAL-101, AZD5363, Rapamycin, MYCi975, and Betulin, respectively, from left to right. (D) Proliferation of CAR^+ T cells stained with CellTrace Violet (CTV) dye was assayed after a 4-day culture in the absence of target cells or exogenous cytokines. Data shown in the histogram correspond to one of technical triplicates shown in the bar graph. The bars FIG. 1D represent data from, EGFRt, untreated, vehicle, CAL-101, AZD5363, Rapamycin, MYCi975, and Betulin, respectively, from left to right. (E) % distribution of T-cell subtypes in CAR^+ T cells after 5 days of pharmacological modulation. Data bars indicate the means of technical triplicates±1 S.D. (F) Rituximab CAR-T cell fold expansion after 6 days of inhibitor culture was tracked. T-cell fold expansion was normalized to the untreated control with each data point representing biological replicates collected from healthy donors. The bars FIG. 1F represent data from, EGFRt, vehicle, CAL-101, AZD5363, Rapamycin, MYCi975, and Betulin, respectively, from left to right. (G) A 24-hr lysis assay of CD20 CAR-T cells against Raji target cells at three effector-to-target (E:T) ratios. Data bars indicate the means of technical triplicates±1 S.D. Percent lysis was normalized to cell counts in target-only wells. […] In (B)-(F), results are representative two independent experiments using cells from of two heathy donors. Statistical significance in panels B, C, and D was determined by two-tailed Student's t test with Sidak correction for multiple comparisons. * p<0.05, ** p<0.01, *** p<0.001, n.s. not statistically significant. […]
(§2) Antibody staining for flow-cytometry analysis. EGFRt expression was measured with biotinylated cetuximab (Eli Lilly; biotinylated in-house), followed by PE-conjugated streptavidin (Jackson ImmunoResearch #016-110-084). CAR expression was quantified by surface epitope staining using anti-Fc (Alexa Fluor 488, Jackson ImmunoResearch #709-546-098). Antigen-independent activation-marker expression of CAR-T cells was evaluated by antibody staining for CD137 (PE/Cy7, clone 4B4-1, BioLegend #309818), and PD-1 (FITC, clone EH12.2H7, BioLegend #329904) on Days 18 (i.e., 18 days after Dynabead addition and 11 days after Dynabead removal) and after 5-6 days of inhibitor culture (FIG. 1, FIG. 3). T-cell subtype of CAR-T cells was evaluated by antibody staining for CD45RO (VioBlue®, clone REA611, Miltenyi #130-119-620) and CD62L (APC, clone DREG56, Invitrogen #17-0629-42) after 5-6 days of inhibitor culture (FIG. 1, FIG. 3). […]

[5] = tested on: Raji target cells; assay: 24-hr lysis assay of inhibitor-treated rituximab CD20 CAR-T cells against Raji; format: cell-based; details: three E:T ratios, vs vehicle-treated
Text: FIG. 1A-G. Pharmacological inhibition of PI3K/AKT pathway modulates antigen-independent CAR-T cell activation. (A) Table of pharmacological inhibitors used during ex vivo expansion of rituximab CAR-T cells (left). Simplified schematic of the PI3K/AKT signaling axis where black arrows represent activation (right). (B) Activation marker expression by CAR^+ T cells in the absence of antigen stimulation after 5 days of pharmacological modulation. Data bars indicate the means of technical triplicates±1 S.D. The bars in FIG. 1B represent data from, untreated, vehicle, CAL-101, AZD5363, Rapamycin, MYCi975, and Betulin, respectively, from left to right. (C) TNF-α production CAR^+ T cells in the absence of antigen stimulation as quantified by intracellular flow cytometry. Data bars indicate the means of technical triplicates±1 S.D. The bars in FIG. 1B and FIG. 1C represent data from, untreated, vehicle, CAL-101, AZD5363, Rapamycin, MYCi975, and Betulin, respectively, from left to right. (D) Proliferation of CAR^+ T cells stained with CellTrace Violet (CTV) dye was assayed after a 4-day culture in the absence of target cells or exogenous cytokines. Data shown in the histogram correspond to one of technical triplicates shown in the bar graph. The bars FIG. 1D represent data from, EGFRt, untreated, vehicle, CAL-101, AZD5363, Rapamycin, MYCi975, and Betulin, respectively, from left to right. (E) % distribution of T-cell subtypes in CAR^+ T cells after 5 days of pharmacological modulation. Data bars indicate the means of technical triplicates±1 S.D. (F) Rituximab CAR-T cell fold expansion after 6 days of inhibitor culture was tracked. […] Statistical significance in panels B, C, and D was determined by two-tailed Student's t test with Sidak correction for multiple comparisons. * p<0.05, ** p<0.01, *** p<0.001, n.s. not statistically significant.
Cytotoxicity assay with Raji cells. […] Remaining target cells were quantified by MACSQuant VYB flow cytometer 24-hr post co-incubation.

[6] = tested on: rituximab CAR-T cells; assay: T-cell subtype distribution (CD45RO/CD62L staining), rituximab CAR-T cells; format: cell-based, human; details: 5 days of pharmacological modulation, vs vehicle
Text: as §1
as §2, with “3).” for “3). T-cell subtype of CAR-T cells was evaluated by antibody staining for CD45RO (VioBlue®, clone REA611, Miltenyi #130-119-620) and CD62L (APC, clone DREG56, Invitrogen #17-0629-42) after 5-6 days of inhibitor culture (FIG. 1, FIG. 3).”

Molecule | prolonged median survival compared to vehicle (DMSO)-treated rituximab CAR-T cells ([1]; NSG mice, Raji i.v.) [folds] | TNF-α production in the absence of antigen stimulation [2] | tumor outgrowth / tumor progression ([1]; NSG mice, Raji i.v., preconditioned rituximab CAR-T cells, bioluminescence, vs vehicle control) | in vivo expansion of CAR-T cells ([1]; human CD45+EGFRt+ cells in peripheral blood, day 8 after first T-cell dose, vs control) | antigen-independent cell division [3] | antigen-independent expression of activation and exhaustion markers [4] | lysis of Raji tumor cells [5] | fraction of naïve and stem-cell memory T (Tn/scm) cells / T-cell differentiation [6]
CC[C@H](Nc1ncnc2[nH]cnc12)c1nc2cccc(F)c2c(=O)n1-c1ccccc1 [CAL-101] | 1.5 | – | – | – | – | – | – | –
CO[C@H]1C[C@@H]2CC[C@@H](C)[C@@](O)(O2)C(=O)C(=O)N2CCCC[C@H]2C(=O)O[C@H]([C@H](C)C[C@@H]2CC[C@@H](O)[C@H](OC)C2)CC(=O)[C@H](C)/C=C(\C)[C@@H](O)[C@@H](OC)C(=O)[C@H](C)C[C@H](C)/C=C/C=C/C=C/1C [rapamycin, Rapamycin] | 1.8 | – | – | – | – | – | – | –
AZD5363 | 1.6 | significantly reduced | delayed tumor outgrowth | significantly increased | significantly reduced | significantly reduced | clustered together | preserved a greater fraction
